Laboratory results: PubChem BioAssay (NCI)
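Tested at 5 concentrations; 48 h exposure; 96-well plates; endpoints linearly interpolated, else capped at highest concentration. TGI is the concentration that stops growth completely.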

What was measured:
Experiment in all cases: NCI tumour cell line growth inhibition, 48 h
RPMI-8226 leukemia = tested on: RPMI-8226 leukemia
K-562 leukemia = tested on: K-562 leukemia
A549 NSCLC = tested on: A549 NSCLC
SW-620 colon = tested on: SW-620 colon
HT29 colon = tested on: HT29 colon
EKVX NSCLC = tested on: EKVX NSCLC
KM12 colon = tested on: KM12 colon
HCT-15 colon = tested on: HCT-15 colon
UO-31 renal = tested on: UO-31 renal
U251 CNS = tested on: U251 CNS
MOLT-4 leukemia = tested on: MOLT-4 leukemia
SR leukemia = tested on: SR leukemia
UACC-257 melanoma = tested on: UACC-257 melanoma
CAKI-1 renal = tested on: CAKI-1 renal
786-0 renal = tested on: 786-0 renal
HS 578T breast = tested on: HS 578T breast
MCF7 breast = tested on: MCF7 breast
MALME-3M melanoma = tested on: MALME-3M melanoma
LOX IMVI melanoma = tested on: LOX IMVI melanoma

Structure (SMILES)	TGI (RPMI-8226 leukemia) [µM]	TGI (K-562 leukemia) [µM]	TGI (A549 NSCLC) [µM]	TGI (SW-620 colon) [µM]	TGI (HT29 colon) [µM]	TGI (EKVX NSCLC) [µM]	TGI (KM12 colon) [µM]	TGI (HCT-15 colon) [µM]	TGI (UO-31 renal) [µM]	TGI (U251 CNS) [µM]	TGI (MOLT-4 leukemia) [µM]	TGI (SR leukemia) [µM]	TGI (UACC-257 melanoma) [µM]	TGI (CAKI-1 renal) [µM]	TGI (786-0 renal) [µM]	TGI (HS 578T breast) [µM]	TGI (MCF7 breast) [µM]	TGI (MALME-3M melanoma) [µM]	TGI (LOX IMVI melanoma) [µM]
O=C(CC(=O)N1N=C(N(c2ccccc2)c2ccccc2)CC1c1ccccc1)Nc1ccccc1 (stereo not drawn)	> 100	> 100	> 100	> 100	> 100	> 100	> 100	> 100	> 100	> 100	> 100	> 100	> 100	> 100	> 100	> 100	> 100		
Cc1cc(O)c2c(c1)CC(O)C1=C2C(=O)c2c(O)ccc(OC3CC(O)C(OC4CC(OC5CCC(O)C(C)O5)C(O)C(C)O4)C(C)O3)c2C1=O (stereo not drawn)	3.22	6.98	7.77	3.14	5.6	4.27	4.46	4.64	3.23	3.22	1.75	2.81	2.93	3.23	3.47	6.36	2.96	2.1	2.89
O=C(/C=C/c1ccc2c(c1)OCO2)CC(=O)/C=C/c1ccc2c(c1)OCO2	> 100	> 100	> 100	> 100	> 100	> 100	10.8	> 100	> 100	> 100	> 100	79.8		> 100	> 100	> 100	> 100	> 100	> 100
O=C(c1ccccc1)C1C[C@H]2CO[C@H](c3ccccc3)N2C1=O (stereo partly drawn)	> 100	> 100	> 100	> 100	> 100	> 100	> 100	> 100	> 100	> 100	> 100	> 100	> 100	> 100	> 100	> 100	> 100	> 100	> 100
O=C(OCc1ccccc1)N1CCCc2c(n(S(=O)(=O)c3ccccc3)c3ccccc23)C1	> 100	> 100	> 100	> 100	> 100	> 100	> 100	> 100	> 100	> 100	> 100	> 100	> 100	> 100	> 100	> 100	> 100	> 100	> 100
O=c1c2cc(S(=O)(=O)Nc3c(Cl)cccc3Cl)ccc2ncn1NS(=O)(=O)c1ccc2ccccc2c1	> 62.5	> 62.5	> 62.5	> 62.5	> 62.5	> 62.5	> 62.5	> 62.5	> 62.5	> 62.5	> 62.5	> 62.5	> 62.5	> 62.5	> 62.5	> 62.5	> 62.5	> 62.5	> 62.5
Cn1c(=O)c2c(nc3n(C)c(=O)c4ccccc4n23)n(C)c1=O	> 76.7	> 100	> 100	> 100	> 100	> 100	> 100	> 100	> 100	> 100	13.4	20.1	> 100	> 100	> 100	> 100	> 100	> 100	> 100
CC1(O)Oc2ccc3ccccc3c2C=C1C(N)=O (stereo not drawn)	> 100	> 100		> 100		> 100	> 100	> 100	> 100	> 100	> 100	> 100	> 100	> 100	> 100	> 100	> 100		> 100
CCOC(=O)c1cc(Br)c(-c2onc(C)c2Br)n1C	> 100	> 100	64.2	> 100		85.6	69.5	> 100	> 100	> 100	44.3	92.9	> 100	45.4	86.1	> 100	77.5	> 100	> 100
CC(=O)CCC[C@H](C)[C@@H](O)[C@@H]1O[C@H]([C@@]2(C)CCC(=O)O2)C[C@H]1C(=O)O	> 100	> 100	> 100	> 100	> 100	> 100	> 100	> 100	> 100	> 100	> 100	> 100	> 100	> 100	> 100	> 100	> 100		> 100
CCOC(=O)c1ccc(Nc2nc3cc(C(F)(F)F)ccc3nc2C(=O)OCC)cc1	> 100	> 100	> 100	> 100	> 100	> 100	> 100	> 100	> 100	40.7	> 100	> 100	> 100	49.6	87	> 100	> 100		> 100
COC(=O)/C=C1/OC(c2ccc(C)cc2)=C(Cl)C1=O	14.4	19	40.4	28.9	32.6	42.3	30.7	26.4	31.6	24.6	13.8	9.06	43.1	29.7	27	68.9	34.9	33.5	23.7
Clc1ccc(-c2nnc(-c3c(Cl)c(Cl)c(Cl)c(Cl)c3-c3nc4ccccc4[nH]3)o2)cc1	> 100	> 100		> 100	> 100	> 100	> 100	> 100	> 100		> 100	> 100	> 100	> 100	> 100	> 100	> 100	> 100	> 100
C#CCCOC(=O)c1ccccc1OC(C)=O	> 100	> 100		> 100		> 100	> 100	> 100	> 100	> 100	> 100	> 100	> 100	> 100	> 100	> 100	> 100		> 100
CCOP(=O)(OCC)C(F)(F)Cc1cnc(C)c2c1COC(C)(C)O2	> 10	> 10	> 10	> 10	> 10	> 10	> 10	> 10	> 10	> 10	> 10	> 10	> 10	> 10	> 10	> 10	> 10	> 10	
N#CC1(C#N)C(c2ccccc2)C=CC(c2ccc([N+](=O)[O-])cc2)C1(C#N)C#N (stereo not drawn)	> 25.6	> 100	32	> 32.4	> 38.5	28.6	52.5	16.5	26.8	53	7.1	> 23.6	30.2	13.1	7.71	> 59.9	21.1		6.87
COc1ccc(C(SCC(N)C(=O)O)(c2ccc(OC)cc2)c2ccc(OC)cc2)cc1 (stereo not drawn)	> 31.6	> 31.6	> 31.6		16.7	21.9	16.2	18.1	20	29.8	24	> 31.6	17.3	> 31.6	20.3	19.5	16.5	16	17.2
O=C1COCCN1C(=O)c1ccccc1Cl	> 100	> 100	> 100	> 100	> 100	> 100	> 100	> 100	> 100	> 100		> 100	> 100	> 100	> 100	> 100	> 100	> 100	> 100
Fc1ccc2c3c([nH]c2c1)CCNC3	> 100	> 100	> 100	> 100	> 100	> 100	> 100	> 100	99.7	> 100	> 100	> 100	> 100		> 100	> 100	> 100	> 100	> 100
CCOC(=O)c1cc(C#N)[nH]c1-c1ccsc1	65.6	93	> 100	> 100	95.1	84	69.6	> 100		87.8	53.1	35.5	> 100	> 100	> 100	55.8	> 100	77.3	> 100
CCO/C=C(\C(=O)OC)S(=O)(=O)c1ccc(C)cc1	> 100	> 100	> 100	> 100	> 100	> 100	> 100	> 100	> 100	> 100	> 100	> 100	> 100		> 100	> 100	> 100	> 100	> 100
Cn1c(=O)n2n(c1=O)[C@@H](c1ccccc1)[C@H]2c1ccccc1		> 100	> 100	> 100	> 100	> 100	> 100	> 100	> 100	> 100	> 100	> 100	> 100	> 100	> 100	> 100	> 100	> 100	> 100
COc1cc2c(cc1OC)C(=O)/C(=C/c1ccc([N+](=O)[O-])cc1)CC2	> 10	> 10	> 10	> 10	> 10	> 10	> 10	> 10		> 10	> 10	> 10	> 10	> 10	> 10	> 10	> 10	> 10	> 10
Cc1cn(C2CC(NC(=NCC3OC(n4cnc5c(N)ncnc54)CC3O)NC#N)C(CO)O2)c(=O)[nH]c1=O (stereo not drawn)		> 100	> 100	> 100	> 100	> 100	> 100	> 100	> 100	> 100	> 100	> 100	> 100	> 100	> 100	> 100	> 100	> 100	> 100
COCN1C(=O)[C@@H]2CCCN2C(=O)c2ccc([N+](=O)[O-])cc21	> 100	> 100	> 100	> 100	> 100	> 100	> 100	> 100	> 100	> 100	> 100	> 100	> 100	> 100	> 100	> 100	> 100		> 100
O=c1cc(-c2cccc(OCc3ccccc3)c2)[nH]c2cc3c(cc12)OCO3	0.766	> 100	> 22.7	> 100	> 97.3	> 100	> 100		16	1.84	> 100	> 100	> 100	> 50.8	3.98	3.02	> 100	> 100	> 100
